Experiments:
Experiment in all cases: Biochemical Assay
[1] = target: GTPase KRas [G12C] (Homo sapiens, UniProt P01116, G12C)
Text: (§1) The purpose of this biochemical assay is to measure the ability of test compounds to covalently label nucleotide-loaded K-Ras isoforms. […] Analysis of raw data may be carried out using Waters MassLynx MS software, with % bound calculated from the deconvoluted protein peaks for labeled and unlabeled K-Ras.

[2] = target: GTPase KRas [G13C] (Homo sapiens, UniProt P01116, G13C)
GTPase KRas [G13C], sequence (P01116 whole entry G13C): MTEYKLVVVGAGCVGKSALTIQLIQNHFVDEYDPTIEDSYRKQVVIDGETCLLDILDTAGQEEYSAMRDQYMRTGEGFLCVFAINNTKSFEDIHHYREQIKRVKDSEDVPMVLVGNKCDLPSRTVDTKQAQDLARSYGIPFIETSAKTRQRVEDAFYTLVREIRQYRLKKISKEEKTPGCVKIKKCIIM
Text: as §1

[3] = target: GTPase NRas [G12C] (Homo sapiens, UniProt P01111, G12C)
GTPase NRas [G12C], sequence (P01111 whole entry G12C): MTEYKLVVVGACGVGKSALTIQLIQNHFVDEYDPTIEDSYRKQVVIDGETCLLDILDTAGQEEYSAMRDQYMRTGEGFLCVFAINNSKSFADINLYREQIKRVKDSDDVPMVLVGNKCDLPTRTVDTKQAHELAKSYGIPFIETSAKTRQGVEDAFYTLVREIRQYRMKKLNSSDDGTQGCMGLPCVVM

GTPase KRas [G12C], sequence (P01116 whole entry G12C, canonical isoform): as the sequence (P01116 whole entry G13C) above, with G12C, C13G counted along it

Structure (SMILES): C=CC(=O)N1CC[C@H](C(=O)N(C)[C@H](C(=O)N[C@H]2Cc3cc(O)cc(c3)-c3ccc4c(c3)c(c(-c3cncc(C#N)c3)n4CC)CC(C)(C)COC(=O)[C@@H]3CCCN(N3)C2=O)C(C)C)C1 [US11566007, Example A62]
- IC50 [1]: in the range around 550 nM

Structure (SMILES): C=CC(=O)N1CCCN(C(=O)N(C)[C@H](C(=O)N[C@H]2Cc3cc(O)cc(c3)-c3ccc4c(c3)c(c(-c3ccccc3CCOC)n4CC)CC(C)(C)COC(=O)[C@@H]3CCCN(N3)C2=O)C(C)C)CC1 [US11566007, Example A13]
- IC50 [2]: in the range around 550 nM

Structure (SMILES): C=CC(=O)N1CC[C@H](C(=O)N(C)[C@H](C(=O)N[C@H]2Cc3cc(OC(=O)CCN4CCN(C)CC4)cc(c3)-c3ccc4c(c3)c(c(-c3ccccc3CCOC)n4CC)CC(C)(C)COC(=O)[C@@H]3CCCN(N3)C2=O)C(C)C)C1 [US11566007, Example A7]
- IC50 [1]: in the range around 550 nM

Structure (SMILES): C=CC(=O)N1CC[C@@]2(CCCN([C@H](C(=O)N[C@H]3Cc4cc(O)cc(c4)-c4ccc5c(c4)c(c(-c4ccccc4CCOC)n5CC)CC(C)(C)COC(=O)[C@@H]4CCCN(N4)C3=O)C(C)C)C2=O)C1 [US11566007, Example A63]
- IC50 [1]: in the range around 550 nM

Structure (SMILES): C=CC(=O)N1C[C@H](C)[C@H](C(=O)N(C)[C@H](C(=O)N[C@H]2Cc3cc(O)cc(c3)-c3ccc4c(c3)c(c(-c3ccccc3CN(C)C)n4CC)CC(C)(C)COC(=O)[C@@H]3CCCN(N3)C2=O)C2CCCC2)C1 [US11566007, Example A43]
- IC50 [1]: in the range around 55 nM

Structure (SMILES): CCn1c(-c2cccnc2COC)c2c3cc(ccc31)-c1cc(O)cc(c1)C[C@H](NC(=O)[C@H](C(C)C)N(C)C(=O)C1CN(C(=O)C#CCN(C)C)C1)C(=O)N1CCC[C@H](N1)C(=O)OCC(C)(C)C2 [US11566007, Example A97]
- IC50 [2]: < 10 nM

Structure (SMILES): C=CC(=O)N1CC[C@H](C(=O)N(C)[C@H](C(=O)NC2C[C@@H]3CN(CCO3)c3ccc4c(c3)c(c(-c3cccnc3COC)n4CC)CC(C)(C)COC(=O)[C@@H]3CCCN(N3)C2=O)C(C)C)C1 (some centres undefined) [US11566007, Example A318]
- IC50 [3]: > 10000 nM

Structure (SMILES): C=CC(=O)N1C[C@H](C)[C@H](C(=O)N(C)[C@H](C(=O)N[C@H]2Cc3cc(O)cc(c3)-c3ccc4c(c3)c(c(-c3cccnc3COC)n4CC)CC(C)(C)COC(=O)[C@@H]3CCCN(N3)C2=O)C(C)C)C1 [US11566007, Example A56]
- IC50 [1]: in the range around 55 nM

Structure (SMILES): C=CC(=O)N1CCC(F)(C(=O)N(C)[C@H](C(=O)N[C@H]2Cc3cc(O)cc(c3)-c3ccc4c(c3)c(c(-c3ccccc3CCOC)n4CC)CC(C)(C)COC(=O)[C@@H]3CCCN(N3)C2=O)C(C)C)CC1 [US11566007, Example A11]
- IC50 [1]: in the range around 550 nM

Structure (SMILES): CCn1c(-c2ccccc2CN(C)C)c2c3cc(ccc31)-c1cc(O)cc(c1)C[C@H](NC(=O)[C@H](C(C)C)N(C)C(=O)c1ccc(NC(=O)/C=C/CN(C)C)cc1)C(=O)N1CCC[C@H](N1)C(=O)OCC(C)(C)C2 [US11566007, Example A49]
- IC50 [2]: in the range around 550 nM

Structure (SMILES): C=CC(=O)N1CCN(C(=O)N(C)[C@H](C(=O)N[C@H]2Cc3cc(O)cc(c3)-c3ccc4c(c3)c(c(-c3ccccc3CCOC)n4CC)CC(C)(C)COC(=O)[C@@H]3CCCN(N3)C2=O)C(C)C)CC1 [US11566007, Example A18]
- IC50 [2]: in the range around 550 nM

Structure (SMILES): C=CC(=O)N1CCC(F)(C(=O)N(C)[C@H](C(=O)N[C@H]2Cc3cc(O)cc(c3)-c3ccc4c(c3)c(c(-c3ccccc3CN(C)C)n4CC)CC(C)(C)COC(=O)[C@@H]3CCCN(N3)C2=O)C(C)C)CC1 [US11566007, Example A20]
- IC50 [1]: in the range around 55 nM

Structure (SMILES): C=CC(=O)N1CC[C@H](C(=O)N(C)[C@H](C(=O)N[C@H]2Cc3cc(O)cc(c3)-c3ccc4c(c3)c(c(-c3ccc(C5CCN(C)CC5)cc3)n4CC)CC(C)(C)COC(=O)[C@@H]3CCCN(N3)C2=O)C(C)C)C1 [US11566007, Example A39]
- IC50 [1]: in the range around 550 nM

Structure (SMILES): C=CC(=O)N1C[C@H](C)[C@H](C(=O)N(C)[C@H](C(=O)N[C@H]2Cc3cc(O)cc(c3)-c3ccc4c(c3)c(c(-c3ccccc3CN(C)C)n4CC)CC(C)(C)COC(=O)[C@@H]3CCCN(N3)C2=O)C(C)C)C1 [US11566007, Example A52]
- IC50 [1]: in the range around 55 nM

Structure (SMILES): C=CC(=O)N1CCC(C(=O)N(C)[C@H](C(=O)N[C@H]2Cc3cc(O)cc(c3)-c3ccc4c(c3)c(c(-c3ccccc3CCOC)n4CC)CC(C)(C)COC(=O)[C@@H]3CCCN(N3)C2=O)C(C)C)CC1 [US11566007, Example A14]
- IC50 [1]: in the range around 550 nM

Structure (SMILES): C=CC(=O)N1CC[C@H](C(=O)N(C)[C@H](C(=O)N[C@H]2Cc3cc(O)cc(c3)-c3ccc4c(c3)c(c(-c3cccnc3COC)n4C)CC(C)(C)COC(=O)[C@@H]3CCCN(N3)C2=O)C(C)C)C1 [US11566007, Example A66]
- IC50 [1]: in the range around 550 nM

Structure (SMILES): C=CC(=O)N1CC[C@H](C(=O)N(C)[C@H](C(=O)N[C@H]2Cc3cc(O)cc(c3)-c3ccc4c(c3)c(c(-c3ccc(CN5CCCC5)cc3)n4CC)CC(C)(C)COC(=O)[C@@H]3CCCN(N3)C2=O)C(C)C)C1 [US11566007, Example A10]
- IC50 [1]: in the range around 550 nM

Structure (SMILES): C=CC(=O)N1CC[C@H](C(=O)N(C)[C@H](C(=O)N[C@H]2Cc3cc(OC(=O)CN)cc(c3)-c3ccc4c(c3)c(c(-c3ccccc3CCOC)n4CC)CC(C)(C)COC(=O)[C@@H]3CCCN(N3)C2=O)C(C)C)C1 [US11566007, Example A8]
- IC50 [1]: in the range around 550 nM

Structure (SMILES): CCn1c(-c2cnccc2COC)c2c3cc(ccc31)-c1cc(O)cc(c1)C[C@H](NC(=O)[C@H](C(C)C)N(C)C(=O)[C@H]1CCN(C(=O)/C=C/CN(C)C)C1)C(=O)N1CCC[C@H](N1)C(=O)OCC(C)(C)C2 [US11566007, Example A87]
- IC50 [2]: in the range around 550 nM

Structure (SMILES): C=CC(=O)N1CC[C@H](C(=O)N(C)[C@H](C(=O)N[C@H]2Cc3cc(O)cc(c3)-c3ccc4c(c3)c(c(-c3cccnc3COCC)n4CC)CC(C)(C)COC(=O)[C@@H]3CCCN(N3)C2=O)C(C)C)C1 [US11566007, Example A44]
- IC50 [1]: in the range around 55 nM

Structure (SMILES): C=CC(=O)N1CC[C@@]2(CCN([C@H](C(=O)N[C@H]3Cc4cc(O)cc(c4)-c4ccc5c(c4)c(c(-c4ccccc4CCOC)n5CC)CC(C)(C)COC(=O)[C@@H]4CCCN(N4)C3=O)C(C)C)C2=O)C1 [US11566007, Example A68]
- IC50 [1]: in the range around 550 nM

Structure (SMILES): C=CC(=O)N1CC[C@H](C(=O)N(C)[C@H](C(=O)N[C@H]2Cc3cc(O)cc(c3)-c3ccc4c(c3)c(c(-c3cccc(CN(C)C)c3)n4CC)CC(C)(C)COC(=O)[C@@H]3CCCN(N3)C2=O)C(C)C)C1 [US11566007, Example A30]
- IC50 [1]: in the range around 550 nM

Structure (SMILES): C=CC(=O)N1CC2(CCN([C@H](C(=O)N[C@H]3Cc4cc(O)cc(c4)-c4ccc5c(c4)c(c(-c4ccccc4CCOC)n5CC)CC(C)(C)COC(=O)[C@@H]4CCCN(N4)C3=O)C(C)C)C2=O)C1 [US11566007, Example A31]
- IC50 [1]: in the range around 55 nM

Structure (SMILES): C=CC(=O)N1CC[C@H](C(=O)N(C)[C@H](C(=O)N[C@H]2Cc3cc(O)cc(c3)-c3ccc4c(c3)c(c(-c3ccc(CN5CC[C@@H](O)C5)cc3)n4CC)CC(C)(C)COC(=O)[C@@H]3CCCN(N3)C2=O)C(C)C)C1 [US11566007, Example A1]
- IC50 [1]: in the range around 550 nM

Structure (SMILES): C=CC(=O)N1CC[C@H](C(=O)N(C)[C@H](C(=O)N[C@H]2Cc3cc(N)cc(c3)-c3ccc4c(c3)c(c(-c3ccccc3COC)n4CC)CC(C)(C)COC(=O)[C@@H]3CCCN(N3)C2=O)C(C)C)C1 [US11566007, Example A42]
- IC50 [1]: in the range around 550 nM

Structure (SMILES): C=CC(=O)N1C[C@H](C)[C@H](C(=O)N(C)[C@H](C(=O)N[C@H]2Cc3cc(O)cc(c3)-c3ccc4c(c3)c(c(-c3ccccc3CCOC)n4CC)CC(C)(C)COC(=O)[C@@H]3CCCN(N3)C2=O)C(C)C)C1 [US11566007, Example A41]
- IC50 [2]: in the range around 5500 nM

Structure (SMILES): C=CC(=O)N1CC[C@H](C(=O)N(C)[C@H](C(=O)N[C@H]2Cc3cc(O)cc(c3)-c3ccc4c(c3)c(c(-c3ccccc3OC)n4CC)CC(C)(C)COC(=O)[C@@H]3CCCN(N3)C2=O)C(C)C)C1 [US11566007, Example A17]
- IC50 [1]: in the range around 550 nM

Structure (SMILES): C=CC(=O)N1CC[C@H](C(=O)N(C)[C@H](C(=O)N[C@H]2Cc3cc(O)cc(c3)-c3ccc4c(c3)c(c(-c3cncc(CN(C)C)c3)n4CC)CC(C)(C)COC(=O)[C@@H]3CCCN(N3)C2=O)C(C)C)C1 [US11566007, Example A73]
- IC50 [1]: in the range around 550 nM

Structure (SMILES): C=CC(=O)N1CC[C@H](C(=O)N(C)[C@H](C(=O)N[C@H]2Cc3cc(O)cc(c3)-c3ccc4c(c3)c(c(-c3ccccc3CCOC)n4CC)CC(C)(C)COC(=O)[C@@H]3CCCN(N3)C2=O)C2CCOCC2)C1 [US11566007, Example A6]
- IC50 [1]: in the range around 550 nM

Structure (SMILES): C=CC(=O)N1CC[C@H](C(=O)N(C)[C@H](C(=O)N[C@H]2Cc3cc(O)cc(c3)-c3ccc4c(c3)c(c(-c3ccccc3[C@@H](C)OC)n4CC)CC(C)(C)COC(=O)[C@@H]3CCCN(N3)C2=O)C(C)C)C1 [US11566007, Example A29]
- IC50 [1]: in the range around 55 nM

Structure (SMILES): C=CC(=O)N1C[C@H](C)[C@H](C(=O)N(C)[C@H](C(=O)N[C@H]2Cc3cc(O)cc(c3)-c3ccc4c(c3)c(c(-c3cccnc3COC)n4CC)CC(C)(C)COC(=O)[C@@H]3CCCN(N3)C2=O)C2CCCC2)C1 [US11566007, Example A57]
- IC50 [1]: in the range around 55 nM

Structure (SMILES): C=CC(=O)N1CC[C@H](C(=O)N(C)[C@H](C(=O)N[C@H]2Cc3cc(O)cc(c3)-c3ccc4c(c3)c(c(-c3cccnc3COC)n4CC)CC(C)(C)COC(=O)[C@@H]3CCCN(N3)C2=O)C2CCCC2)C1 [US11566007, Example A55]
- IC50 [1]: in the range around 55 nM

Structure (SMILES): CCn1c(-c2ccccc2CN(C)C)c2c3cc(ccc31)-c1cc(O)cc(c1)C[C@H](NC(=O)[C@H](C(C)C)N(C)C(=O)c1ccc(NC(=O)/C=C/CN(C)C)cn1)C(=O)N1CCC[C@H](N1)C(=O)OCC(C)(C)C2 [US11566007, Example A46]
- IC50 [1]: in the range around 550 nM
- IC50 [2]: in the range around 55 nM

From BindingDB's records for patent US11566007 (Revolution Medicines, 2023)
